# Data taken from patent US20220204476A1, “RNA VIRUS INHIBITOR COMPOUNDS AND USES THEREOF” (The Governors of the University of Alberta, priority 2020, published 2022).
# Read-outs that look alike come from different tables or passages of the source.
# Experiments:
# SARS-CoV-2 3CLP = SARS-CoV-2 3CLP (Severe acute respiratory syndrome coronavirus 2, UniProt P0DTD1); assay: SARS-CoV-2 3CLP inhibition, FRET-based cleavage assay; type: biochemical; conditions: 100 μM substrate, 37° C., 10 min incubation, pH 7.8
# SARS-CoV-2 = SARS-CoV-2 in vitro plaque reduction assay in Vero E6 cells; type: cell-based; conditions: Severe acute respiratory syndrome coronavirus 2, Vero C1008, MOI 0.0001 pfu/cell, plaques counted after 48 h, >5 μM = did not reduce plaque numbers by half at 10 μM, read-out: SARS-CoV-2 Antiviral EC50
# [1] = Cytotoxicity, CellTiter-Glo luminescent cell viability assay; conditions: human (A549) and green monkey (Vero E6)
# [2] = 80 nM SARS-CoV-2 3CLP, read-out: 3CL Protease IC50
Structure (SMILES),IC50 (SARS-CoV-2 3CLP; [2]) [nM],EC50 (SARS-CoV-2) [µM],CC50 at 24 h [1] [µM],"IC50 (SARS-CoV-2 3CLP; 3CL Protease IC50, 80 nM SARS-CoV-2 3CLP) [nM]"
"CC(C)C[C@H](NC(=O)[C@H]1CCCO1)C(=O)N[C@@H](C[C@@H]1CCNC1=O)C(=O)COC(=O)c1c(C(F)(F)F)cccc1C(F)(F)F [Compound 74, (3S)-2-oxo-3-({N-[(2R)-oxolane-2-carbonyl]-L-leucyl}amino)-4-[(3S)-2-oxopyrrolidin-3-yl]butyl 2,6-bis(trifluoromethyl)benzoate]",110,< 1,> 200,
"Cc1cc(C)c(C(=O)OCC(=O)[C@H](C[C@@H]2CCCNC2=O)NC(=O)[C@H](CC(C)C)NC(=O)[C@H]2CCCO2)c(C)n1 [Compound 73, (3S)-2-oxo-3-({N-[(2R)-oxolane-2-carbonyl]-L-leucyl}amino)-4-[(3S)-2-oxopiperidin-3-yl]butyl 2,4,6-trimethylpyridine-3-carboxylate]",190,< 1,> 200,
"COc1cccc2[nH]c(C(=O)N[C@@H](CC(C)C)C(=O)N[C@@H](C[C@@H]3CCCNC3=O)C(=O)COC(=O)c3c(Cl)cccc3Cl)cc12 [Compound 5, (3S)-3-{[N-(4-methoxy-1H-indole-2-carbonyl)-L-leucyl]amino}-2-oxo-4-[(3S)-2-oxopiperidin-3-yl]butyl 2,6-dichlorobenzoate]",6.4,,> 200,
"COc1cccc2[nH]c(C(=O)N[C@@H](CC(C)C)C(=O)N[C@@H](C[C@@H]3CCCNC3=O)C(=O)COC(=O)C(C)(C)C(F)(F)F)cc12 [Compound 13, (3S)-3-{[N-(4-methoxy-1H-indole-2-carbonyl)-L-leucyl]amino}-2-oxo-4-[(3S)-2-oxopiperidin-3-yl]butyl 3,3,3-trifluoro-2,2-dimethylpropanoate]",20,> 5,> 200,
"CC(C)C[C@H](NC(=O)c1cc2c(OC(F)(F)F)cccc2[nH]1)C(=O)N[C@H](C#N)C[C@@H]1CCCNC1=O [Compound 40, N-[(2S)-1-({(1S)-1-cyano-2-[(3S)-2-oxopiperidin-3-yl]ethyl}amino)-4-methyl-1-oxopentan-2-yl]-4-(trifluoromethoxy)-1H-indole-2-carboxamide]",14,2.6,> 50,
"COc1cccc2[nH]c(C(=O)N[C@@H](CC(C)C)C(=O)N[C@@H](C[C@@H]3CCCNC3=O)C(=O)COC(=O)c3c(C(F)(F)F)cc(C)nc3C)cc12 [Compound 18, (3S)-3-{[N-(4-methoxy-1H-indole-2-carbonyl)-L-leucyl]amino}-2-oxo-4-[(3S)-2-oxopiperidin-3-yl]butyl 2,6-dimethyl-4-(trifluoromethyl)pyridine-3-carboxylate]",14,0.46,> 200,
"CCOc1cccc2[nH]c(C(=O)N[C@@H](CC(C)C)C(=O)N[C@H](C#N)C[C@@H]3CCCNC3=O)cc12 [Compound 69, N-[(2S)-1-({(1S)-1-cyano-2-[(3S)-2-oxopiperidin-3-yl]ethyl}amino)-4-methyl-1-oxopentan-2-yl]-4-ethoxy-1H-indole-2-carboxamide]",24,4.8,> 200,
"CC(C)C[C@H](NC(=O)c1cc2c3c(ccc2[nH]1)CCO3)C(=O)N[C@H](C#N)C[C@@H]1CCCNC1=O [Compound 71, N-[(2S)-1-({(1S)-1-cyano-2-[(3S)-2-oxopiperidin-3-yl]ethyl}amino)-4-methyl-1-oxopentan-2-yl]-3,6-dihydro-2H-furo[2,3-e]indole-7-carboxamide]",49,> 5,> 200,
"COc1cccc2[nH]c(C(=O)N[C@@H](CC(C)(C)C)C(=O)N[C@H](C#N)C[C@@H]3CCCNC3=O)cc12 [Compound 70, N-[(2S)-1-({(1S)-1-cyano-2-[(3S)-2-oxopiperidin-3-yl]ethyl}amino)-4,4-dimethyl-1-oxopentan-2-yl]-4-methoxy-1H-indole-2-carboxamide]",,> 5,> 200,
"COc1cccc2[nH]c(C(=O)N[C@@H](CC(C)C)C(=O)N[C@@H](C[C@@H]3CCCNC3=O)C(=O)COC(=O)c3ccccn3)cc12 [Compound 3, (3S)-3-{[N-(4-methoxy-1H-indole-2-carbonyl)-L-leucyl]amino}-2-oxo-4-[(3S)-2-oxopiperidin-3-yl]butyl pyridine-2-carboxylate]",,> 5,,130
"COc1cccc2[nH]c(C(=O)N[C@@H](CC(C)C)C(=O)N[C@H](C#N)C[C@@H]3CCCNC3=O)cc12 [Compound 34, N-[(2S)-1-({(1S)-1-cyano-2-[(3S)-2-oxopiperidin-3-yl]ethyl}amino)-4-methyl-1-oxopentan-2-yl]-4-methoxy-1H-indole-2-carboxamide]",13,2.7,> 200,
"CC(C)C[C@H](NC(=O)OCC1c2ccccc2-c2ccccc21)C(=O)N[C@H](C#N)C[C@@H]1CCCNC1=O [Compound 67, N-{(1S)-1-cyano-2-[(3S)-2-oxopiperidin-3-yl]ethyl}-N^2-{[(9H-fluoren-9-yl)methoxy]carbonyl}-L-leucinamide]",170,4.1,,
"CC(C)C[C@H](NC(=O)c1cc2ccccc2o1)C(=O)N[C@H](C#N)C[C@@H]1CCCNC1=O [Compound 79, N-[(2S)-1-({(1S)-1-cyano-2-[(3S)-2-oxopiperidin-3-yl]ethyl}amino)-4-methyl-1-oxopentan-2-yl]-1-benzofuran-2-carboxamide]",250,4.5,,
"Cc1ccc(C(=O)N[C@@H](CC(C)C)C(=O)N[C@H](C#N)C[C@@H]2CCCNC2=O)cn1 [Compound 81, N-{(1S)-1-cyano-2-[(3S)-2-oxopiperidin-3-yl]ethyl}-N^2-(6-methylpyridine-3-carbonyl)-L-leucinamide]",620,> 5,,
"CC(C)C[C@H](NC[C@@H]1CCCO1)C(=O)N[C@H](C#N)C[C@@H]1CCCNC1=O [Compound 92, N-{(1S)-1-cyano-2-[(3S)-2-oxopiperidin-3-yl]ethyl}-N^2-{[(2S)-oxolan-2-yl]methyl}-L-leucinamide]",104000,> 5,,
"COc1cccc2[nH]c(C(=O)N[C@@H](CC(C)C)C(=O)N[C@@H](C[C@@H]3CCCNC3=O)C(=O)COC(=O)c3c(C(F)(F)F)cccc3C(F)(F)F)cc12 [Compound 6, (3S)-3-{[N-(4-methoxy-1H-indole-2-carbonyl)-L-leucyl]amino}-2-oxo-4-[(3S)-2-oxopiperidin-3-yl]butyl 2,6-bis(trifluoromethyl)benzoate]",1,0.21,> 200,
"CC(C)C[C@H](NS(=O)(=O)C1CCCCC1)C(=O)N[C@H](C#N)C[C@@H]1CCCNC1=O [Compound 84, N-{(1S)-1-cyano-2-[(3S)-2-oxopiperidin-3-yl]ethyl}-N^2-(cyclohexanesulfonyl)-L-leucinamide]",3100,> 5,,
"COc1cc(Cl)cc2[nH]c(C(=O)N[C@@H](CC(C)(C)C)C(=O)N[C@H](C#N)C[C@@H]3CCCNC3=O)cc12 [Compound 35, 6-chloro-N-[(2S)-1-({(1S)-1-cyano-2-[(3S)-2-oxopiperidin-3-yl]ethyl}amino)-4,4-dimethyl-1-oxopentan-2-yl]-4-methoxy-1H-indole-2-carboxamide]",,1.5,> 200,
"COc1cccc2[nH]c(C(=O)N[C@@H](CC(C)C)C(=O)N[C@@H](C[C@@H]3CCCNC3=O)C(=O)COC(=O)c3ccccc3)cc12 [Compound 2, (3S)-3-{[N-(4-methoxy-1H-indole-2-carbonyl)-L-leucyl]amino}-2-oxo-4-[(3S)-2-oxopiperidin-3-yl]butyl benzoate]",64,> 5,,
"Cc1cc(C)c(C(=O)OCC(=O)[C@H](C[C@@H]2CCCNC2=O)NC(=O)[C@H](CC(C)(C)C)NC(=O)[C@H]2CCCO2)c(C)n1 [Compound 87, (3S)-3-({4-methyl-N-[(2R)-oxolane-2-carbonyl]-L-leucyl}amino)-2-oxo-4-[(3S)-2-oxopiperidin-3-yl]butyl 2,4,6-trimethylpyridine-3-carboxylate]",200,1.9,,
"CC(C)(C)C[C@H](NC(=O)[C@H]1Cc2ccccc2N1C(=O)OCc1ccccc1)C(=O)N[C@H](C#N)C[C@@H]1CCCNC1=O [Compound 101, benzyl (2R)-2-{[(2S)-1-({(1S)-1-cyano-2-[(3S)-2-oxopiperidin-3-yl]ethyl}amino)-4,4-dimethyl-1-oxopentan-2-yl]carbamoyl}-2,3-dihydro-1H-indole-1-carboxylate]",180,> 5,,
"COc1cccc2[nH]c(C(=O)N[C@@H](CC(C)C)C(=O)N[C@@H](C[C@@H]3CCCNC3=O)C(=O)COC(=O)C(C)(C)C#N)cc12 [Compound 14, (3S)-3-{[N-(4-methoxy-1H-indole-2-carbonyl)-L-leucyl]amino}-2-oxo-4-[(3S)-2-oxopiperidin-3-yl]butyl 2-cyano-2-methylpropanoate]",22,> 5,,
"CC(C)C[C@H](NCc1ccc[nH]c1=O)C(=O)N[C@H](C#N)C[C@@H]1CCCNC1=O [Compound 78, N-{(1S)-1-cyano-2-[(3S)-2-oxopiperidin-3-yl]ethyl}-N^2-[(2-oxo-1,2-dihydropyridin-3-yl)methyl]-L-leucinamide]",47000,> 5,,
